Values joined by “and” are separate entries in the source; they are usually repeats but may differ in a detail not shown here. Equal values may be shown once. “Also recorded” adds a separate entry of the source. Read-outs that look alike come from different tables or passages of the source.
Experiments:
[1] = tested on: CFU-GM from normal CD34+ hematopoietic progenitor cells; assay: Clonogenic assay of CD34+ cells, CFU-GM (Example 11); type: cell-based, human; settings: for effect alone on colony formation of CFU-GM or erythroid colonies / effect on busulphan-induced inhibition of colony formation of CFU-GM or erythroid colonies: CD34+ cells; for effect on busulphan-induced inhibition of colony formation of CFU-GM or erythroid colonies: preincubation then busulphan 4.5 or 10 μg/ml for 4 hours
Experimental: (§1) Ten healthy volunteers were recruited after a medical interview. The study followed the guidelines of the local authorities and was approved by the local ethical committee. […] CD34+ cells were separated on a MACS system by positive selection using CD34+ Separation Kit according to the manufacturer's instructions. Cells were incubated in RPMI-1640 medium supplemented with 10% heat inactivated fetal bovine serum at 37° C. in a humidified 5% CO2 atmosphere. Cells used for pharmacodynamic study were incubated in busulphan of final concentrations of 1, 2.5, 5, 10, 20, 40 or 60 μg/ml for 2, 4 or 8 hours. Cells used for the GSH modulation part were treated with N-acetyl-L-cysteine (NAC) (1 mM) or L-buthionine-[S,R]-sulfoximine (BSO) (50 μM) for 16 to 18 hours, followed by busulphan in final concentrations of 4.5 or 10 μg/ml for 4 hours. After incubation, cells were washed and plated for clonogenic assay.
(§2) CD34+ cells were treated with NAC, BSO, DMSO or busulphan alone or in combinations, washed and 2000 cells were plated in 1.1 ml of MethoCult™ GF H4434 in 35 mm Petri dishes in triplicates. Colonies were scored on day 14 using an inverted microscope. Murine bone marrow was harvested on day 1, 3, 6, 9 or 12 after the last dose of the treatment. Control group and each treatment group consisted of a minimum of three animals at each time point. Mice were sacrificed under general anaesthesia. Both femurs were removed and bone marrow was flushed out under sterile conditions. Cells were counted in Türk solution and nucleated cells (0.5×10^5) were plated in 1.1 ml of MethoCult™ GF M3534 in 35 mm Petri dishes in triplicates. The plates were placed in incubator (37° C., 5% CO2 and 100% humidity). CFU-GM, equal to or more than 50 cells, were counted on the day 7 using an inverted microscope.

[2] = tested on: GSH intracellular content of CD34+ cells; assay: GSH assay in CD34+ cells after NAC or BSO; type: cell-based, human; settings: preincubation 16 to 18 hours, NAC 1 mM or BSO 50 μM
Experimental: as §1, with “After incubation, cells were washed and plated for clonogenic assay.” left out
(§3) Intracellular concentrations of GSH were determined using the enzymatic assay according to Tietze (Tietze, F. Enzymic method for quantitative determination of nanogram amounts of total and oxidized glutathione: applications to mammalian blood and other tissues. Anal Biochem, 27: 502-522., 1969). Total cellular protein was assessed according to Lowry after dissolving the precipitate in 1M NaOH (Lowry, O. H., Rosebrough, N. J., Farr, A. L., and Randall, R. J. Protein measurement with the folin phenol reagent. J Biol Chem, 193: 265-275., 1951)

[3] = tested on: GSH intracellular level of P39 cells; assay: GSH assay in P39 cells after NAC or BSO; type: cell-based, human
Experimental: (§4) The P39 cell line was kindly provided by Prof Y. Yoshida, Center for South East Asian Studies, Kyoto University, Kyoto, Japan. Cells were cultured in RPMI-1640 medium supplemented with 10% heat inactivated fetal bovine serum (FBS), penicillin (25 IU/ml) and streptomycin (25 μg/ml) at 37° C. in a humidified 5% CO2 atmosphere. Exponentially growing cells were used in all experiments. Cells were incubated with N-acetyl-L-cysteine (1 mM) or L-buthionine-[S,R]-sulfoximine (50 μM) for 16 to 18 hours and then with busulphan in final concentrations of 10, 20 or 40 μg/ml for 4 hours. After incubation, cells were washed and re-cultured in busulphan-free medium for 72 hours.
as §3

myeloid P39 cell line = assay: Proliferation, clonogenicity and apoptosis in P39 cells; type: cell-based, human; settings: for effect on proliferation of busulphan treated P39 cells ([^3H]thymidine incorporation) / effect on the effect of busulphan on clonogenic capacity of P39 cells / effect on levels of apoptosis induced by busulphan in P39 cells: pretreatment; for effect on the effect of busulphan on clonogenic capacity of P39 cells: busulphan 10, 20 or 40 μg/ml 4 hours; for effect on levels of apoptosis induced by busulphan in P39 cells: data not shown
Experimental: as §4
Proliferation was assessed using the [^3H]thymidine incorporation assay. Clonogenic capacity was determined in 0.9% methylcellulose and apoptosis with morphology in May-Grünwald-Giemsa staining as described in (Hassan, Z., Hassan, M., and Hellstrom-Lindberg, E. The pharmacodynamic effect of busulfan in the P39 myeloid cell line in vitro. Leukemia, 15: 1240-1247, 2001).

CFU-GM = assay: Busulphan-induced myelosuppression in mice with GSH modulators, CFU-GM assay; type: in vivo, Balb/c mice; settings: for effect of combination on the myelosuppressive effect of busulphan: NAC 1.38 mmol/kg orally or BSO 0.93 mmol/kg ip before busulphan
Experimental: Balb/c mice were purchased from B&K Universal Limited, Sweden. Female mice were 6 to 12 weeks old with a weight ranging from 20 to 24 g. Local animal ethical committee approved animals housing conditions and experimental design. Animals were fed with standard pelleted food and water ad libitum. […] Treatment consisted of N-acetyl-L-cysteine (1.38±0.07 mmol/kg) orally or L-buthionine-[S,R]-sulfoximine (0.93±0.03 mmol/kg) intraperitoneally followed by liposomal busulphan (37±1.4 mg/kg) intraperitoneally. Animals were sacrificed at day 1, 3, 6, 9 or 12 after the last dose of treatment.
Liposomal busulphan was used in the in vivo study and prepared as described in example 1. Liposomal busulphan was prepared freshly before each experiment and stored in refrigerator until use.
as §2

[4] = Busulphan AUC before and after NAC in patients (Example 12); type: in vivo, human patients; settings: for AUC: plasma
Experimental: Busulphan was given twice daily.
Busulphan was determined using gas chromatography with electron capture detector. Internal standard (1,5-bis(methanesulphonyloxy) pentane) was added to 0.5 ml plasma. Busulphan and internal standard were converted to 1,4-diiodobutane and 1,5-diiodopentane, respectively.

[5] = NAC therapy during conditioning prior to allogeneic SCT: liver function, VOD, course of transplantation (Example 12)
From the text: Ten patients, who underwent allogeneic stem cell transplantation (SCT) were included in the study. Six patients were transplanted with stem cells from matched unrelated donors, three with stem cells from HLA (Human Leukocyte Antigen) identical sibling donors and one with cord blood. The patients were included on the basis of high risk for hepatic toxicity. […] All patients had been tested negative for viral hepatitis B and C during pre-transplantation evaluation.
The initial busulphan dose given to these patients was 4 mg/kg/day. Busulphan was given twice daily. In cases of high busulphan serum concentrations the dose was reduced during conditioning as described below. […] Nine patients were given NAC during conditioning with busulphan. Treatment with NAC was given once daily as a three-hour infusion, 100 mg per kg body weight starting six hours after the previous busulphan dose and ending three hours before the following dose. The number of NAC doses given during and after busulphan treatment among the patients is described in Table 9. […] When restarted, NAC was administered not earlier than twelve hours after the end of cyclophosphamide infusion. The treatment was continued until elevated liver transaminases were normalized or, if normal transaminases at initiation of therapy, until conditioning was completed.
Tissue typing, conditioning, GVHD prophylaxis and infectious prophylaxis were performed as generally known to the skilled person. In short, the patients were treated in reversed isolation, immunosuppression consisted of four doses of methotrexate combined with cyclosporine and antithymocyte globuline, (Thymoglobulin, Sangstadt, Lyon, France), was given to recipients of unrelated stem cells.

[6] = tested on: Erythroid colonies from normal CD34+ hematopoietic progenitor cells; assay: Clonogenic assay of CD34+ cells, erythroid colonies (Example 11); type: cell-based, human; settings: bone marrow donors BM 1-5 and Mean
Experimental: as §1
CD34+ cells were treated with NAC, BSO, DMSO or busulphan alone or in combinations, washed and 2000 cells were plated in 1.1 ml of MethoCult™ GF H4434 in 35 mm Petri dishes in triplicates. Colonies were scored on day 14 using an inverted microscope. […] Cells were counted in Türk solution and nucleated cells (0.5×10^5) were plated in 1.1 ml of MethoCult™ GF M3534 in 35 mm Petri dishes in triplicates. […] CFU-GM, equal to or more than 50 cells, were counted on the day 7 using an inverted microscope.

[7] = Half-life of busulphan in RPMI-1640 medium (in vitro pharmacokinetics); type: physicochemical; settings: 37° C.
[8] = 25° C.; cited from earlier work
[9] = tested on: GSH in murine hepatocytes; settings: cited from earlier work
[10] = After NAC therapy, one line per patient
[11] = After conditioning, one line per patient

For `CCCCS(=N)(=O)CC[C@H](N)C(=O)O` (stereo partly drawn) [BSO, L-buthionine-[S,R]-sulfoximine], the “effect alone on colony formation of CFU-GM or erythroid colonies” value [1] was “did not influence”, the “effect on busulphan-induced inhibition of colony formation of CFU-GM or erythroid colonies” value [1] was “Neither did preincubation of CD34+ cells with BSO change; also recorded: no additive effect” and the “GSH intracellular content compared to CD34+ cells incubated in medium” value [2] was 50±9% and 50%. For the same compound, the “decrease of GSH compared to cells cultured in medium” value ([3]; BSO 50 μM 16 to 18 hours) was 80%, the “decrease of clonogenic capacity of P39 cells” value (myeloid P39 cell line; alone, immediately at the end of incubation, full recovery after 24 hours) was 50% and the “combined effect with busulphan on P39 cells” value (myeloid P39 cell line; busulphan 10 μg/ml, immediately after the end of incubation) was “Additive effect”. For the same compound, the “effect on proliferation of busulphan treated P39 cells ([^3H]thymidine incorporation)” value (myeloid P39 cell line) was “did not influence the proliferation”, the “effect on the effect of busulphan on clonogenic capacity of P39 cells” value (myeloid P39 cell line) was “neither NAC nor BSO influenced” and the “effect on levels of apoptosis induced by busulphan in P39 cells” value (myeloid P39 cell line) was “did not change the levels of apoptosis”. The “effect alone on CFU-GM formation compared to the control group” value (CFU-GM) was “Neither NAC nor BSO influenced” and the “effect of combination on the myelosuppressive effect of busulphan” value (CFU-GM) was “did not change the level of myelosuppression”.
In the case of `CC(=O)N[C@@H](CS)C(=O)O` [NAC, N-acetyl-L-cysteine], the “effect alone on colony formation of CFU-GM or erythroid colonies” value [1] is reported as “did not influence”, the “effect on busulphan-induced inhibition of colony formation of CFU-GM or erythroid colonies” value [1] is reported as “did not affect” and the “GSH intracellular content compared to CD34+ cells incubated in medium” value [2] is reported as 150±30%. For the same compound, the “increase of GSH intracellular level compared to cells cultured in medium” value ([3]; NAC 1 mM 16 to 18 hours) was 10%, the “effect on proliferation of busulphan treated P39 cells ([^3H]thymidine incorporation)” value (myeloid P39 cell line) was “did not influence the proliferation” and the “effect on the effect of busulphan on clonogenic capacity of P39 cells” value (myeloid P39 cell line) was “neither NAC nor BSO influenced”. The “effect on levels of apoptosis induced by busulphan in P39 cells” value (myeloid P39 cell line) was “did not change the levels of apoptosis”, the “effect alone on CFU-GM formation compared to the control group” value (CFU-GM) was “Neither NAC nor BSO influenced” and the “effect of combination on the myelosuppressive effect of busulphan” value (CFU-GM) was “did not significantly influence”. The “effect on busulphan serum concentrations” value ([4]; human, in vivo) was “not affected”, the ALT [5, 10] was 0.77 ukat/L and 1.19 ukat/L and 0.61 ukat/L and 0.52 ukat/L and the AST [5, 10] was 0.29 ukat/L and 0.33 ukat/L and 0.42 ukat/L and 0.49 ukat/L. The Bilirubin [5, 10] was 9 µmol/L and 19 µmol/L and 7 µmol/L and 6 µmol/L, the ALT [5, 11] was 4.11 ukat/L and 3.45 ukat/L and 0.78 ukat/L and 2.24 ukat/L and the AST [5, 11] was 1.76 ukat/L and 1.50 ukat/L and 0.40 ukat/L and 0.82 ukat/L. For the same compound, the Bilirubin [5, 11] was 4 µmol/L and 12 µmol/L and 11 µmol/L and 6 µmol/L, the ALT ([5]; Before NAC therapy, one line per patient, normal range <0.8) was 1.51 ukat/L and 2.25 ukat/L and 0.59 ukat/L and 8.10 ukat/L and the AST ([5]; Before NAC therapy, one line per patient, normal range <0.80) was 0.85 ukat/L and 0.96 ukat/L and 0.38 ukat/L and 11.2 ukat/L. For the same compound, the Bilirubin ([5]; Before NAC therapy, one line per patient, normal range <26) was 4 µmol/L and 5 µmol/L and 8 µmol/L and 3 µmol/L, the “Engraftment WBC day, ≧0.5 × 10^9/L” value ([5]; Day of SCT = day 0, one line per patient) was 13 day (2×) and 12 day (3×) and 15 day and 24 day and 10 day and 14 day and 16 day and the “First day of WBC ≦0.5 × 10^9/L” value ([5]; Day of SCT = day 0, one line per patient, NAC during conditioning) was 1 day and −1 day (2×) and −3 day and 0 day and 4 day and 5 day and 6 day and 2 day and −2 day. The “liver transferases after treatment in patients elevated at initiation” value ([5]; in vivo) was “less elevated test results after treatment”, the “side effects related to the NAC infusions” value ([5]; in vivo) was “no side effects related to the NAC infusions were observed” and the “Chimerism at 1 month post SCT” value ([5]; one line per patient) was 100% donor. For the same compound, the Patient outcome ([5]; one line per patient) was “Died day”, the “Recurrence of the malignancy” value ([5]; one line per patient) was “No (9×) and 15 mo after” and the neutropenia ([5]; ten patients) was “Neutropenia developed in all patients”. The “VOD or fatal liver toxicity” value ([5]; ten patients at high risk of VOD) was “None of the patients developed VOD or fatal liver toxicity” and the “donor origin of hematopoietic cells (CD3+, Cd19+, CD45+) in peripheral blood” value ([5]; three months after SCT, five patients) was 100%.
With `CS(=O)(=O)OCCCCOS(C)(=O)=O` [busulphan, 1,4-bis-(methanesulphonyloxy)butan] the “I-AUC100 (AUC inhibiting colony formation by 100%)” value ([1]; CFU-GM, bone marrow donors BM 1-5 and Mean) was 69.33 µg·h/mL and 56.01 µg·h/mL and 74.14 µg·h/mL and 69.46 µg·h/mL and 74.38 µg·h/mL, the “I-AUC50 (AUC inhibiting colony formation by 50%)” value [6] was 31.54 µg·h/mL and 18.13 µg·h/mL and 24.68 µg·h/mL and 30.12 µg·h/mL and 26.96 µg·h/mL and the “I-AUC50 (AUC inhibiting colony formation by 50%)” value ([6]; mean) was 26.29 µg·h/mL. For the same compound, the “myelosuppression (CFU-GM colony-formation assay)” value (CFU-GM; liposomal busulphan 37±1.4 mg/kg ip once a day for 4 days) was “stable myelosuppression on days 3 through 12”, the “Busulphan AUC corrected for 2 mg/kg” value ([4]; After NAC, one line per patient) was 10385 ng·h/mL and 12350 ng·h/mL and 15230 ng·h/mL and 10043 ng·h/mL and 19445 ng·h/mL and 12828 ng·h/mL and the AUC ([4]; human, 2 mg/kg, Busulphan AUC corrected for 2 mg/kg, After NAC, one line per patient) was 14800 ng·h/mL. For the same compound, the AUC ([4]; human, oral, 4 mg/kg/day, patients no 2, 4 and 8, in this order, before NAC, read-out: AUC after the first dose of busulphan) was 20500 ng·h/mL, the AUC ([4]; human, oral, patients no 2, 4 and 8, in this order, doses reduced by 35, 15 and 30%, read-out: mean values of the AUC's during doses 4-8) was 11400 ng·h/mL and the “AUC after the first dose of busulphan” value ([4]; patients no 2, 4 and 8, in this order, before NAC) was 15527 ng·h/mL and 16122 ng·h/mL. The “mean values of the AUC's during doses 4-8” value ([4]; patients no 2, 4 and 8, in this order, doses reduced by 35, 15 and 30%) was 10551 ng·h/mL and 12122 ng·h/mL, the half-life [7] was 960 min and the “k (C=C0.e^−kt)” value [7] was 0.043. For the same compound, the water solubility [8] was “less than 1 microgram/ml”, the “GSH depletion in murine hepatocytes” value ([9]; in vitro) was 50% and the “GSH depletion in murine hepatocytes” value ([9]; in vivo) was 60%.
